According to patent publication EP1695711A2, “Parenteral formulations comprising boronic acid species for selective thrombin inhibition” (TRIGEN LIMITED, priority 2002, dated 2004):
Counter-ions that a name gives are not always drawn. Like-named read-outs stand apart in the source and are kept apart here. Each block holds one compound with its values, some of them ahead of it.

Tests used:
[1] = Hydrolysis under HPLC assay conditions; assay type: physicochemical; conditions: acid conditions / sample preparation of an HPLC assay
platelet rich thrombus = assay: Rabbit extracorporeal shunt model; assay type: in vivo, NZW rabbits; conditions: for THROMBUS WEIGHT AFTER 20 minute run: n=5
Excerpt: The technique describes an animal model in which a platelet rich thrombus is produced. The activity of TRI 50b and heparin are compared.
The carotid artery and jugular vein of anaesthetised rabbits were used to create an extracorporeal circuit containing a suspended foreign surface (silk thread). Thrombus deposition is initiated by creation of high sheer stress turbulent arterial blood flow, platelet activation, followed by coagulation in the presence of thrombogenic surfaces. Histopathological studies have shown that the thrombus is platelet rich.
NZW rabbits (males 2.5-3.5 kg) were used. The animals were allowed food and water up to the induction of anaesthesia.
Animals were premedicated with […] (Hypnorm) 0.15 ml total by intramuscular injection. General anaesthesia was induced with methohexitone (10 mg/ml) to effect, followed by endotracheal intubation. Anaesthesia was maintained with isoflurane (1-2.0 %) carried in oxygen /nitrous oxide.
The animals were placed in dorsal recumbency and the ventral cervical region prepared for surgery. The left carotid artery and right jugular vein were exposed. The artery was cannulated with a large Portex® catheter (yellow gauge), cut to a suitable length. The vein was cannulated with a Silastic® catheter. The shunt comprised of a 5 cm length of 'auto analyser' line (purple /white gauge). Joins to the shunt on the arterial side were made with intermediate size Silastic® tubing. The shunt was filled with saline before exposure to the circulation. The right femoral artery was cannulated for the measurement of blood pressure.
The central section of the shunt contained a thread 3 centimetres in length. This consisted of 000 gauge Gutterman sewing silk so as to give four strands with a single knot at the end. (The knot section was outside the shunt).
Blood flow velocity was determined by use of 'Doppler' probes (Crystal Biotech). A silastic probe was positioned over the carotid artery at the point of insertion of the arterial catheter. Flow was recorded on a chart recorder using heat sensitive paper.

[2] = i.v. pharmacokinetics in rats; conditions: rat
Description: (§1) Rats, body weight circa 250-300g were used. The animals were fasted only on the day of use for the iv stage.
(§2) Just before administration, 5 volumes of this solution is mixed with 3 volumes of 5% kollidon 17 8F.
(§3) Both compounds were given at a dose of 1.0mg/kg iv.
(§4) The compounds were dosed in a PEG/ethanol/kollidon formulation which was prepared immediately before, as described immediately under the heading "Dose": Stock 15.0mg/ml. This was dosed at 1.33ml/kg (equivalent to 30mg/kg).
(§5) A pre dose sample was taken followed by: 0, 2, 5, 10, 20, 30, 40, 60 and 90 minutes post dose.
(§6) This was obtained by centrifugation (3000 RPM for 10 min) and stored at -20°C prior to analysis.

washed platelets = assay: Aggregation of washed platelets; assay type: cell-based
[3] = system: platelet procoagulant activity; assay: Inhibition of platelet procoagulant activity; assay type: cell-based
Excerpt: Platelet pro-coagulant activity may be observed as the increase, in rate of activation of prothrombin by factor Xa in the presence of factor Va upon the addition of platelets pretreated with thrombin, caused by thrombin alone, collagen alone or a mixture of thrombin and collagen. This property is due to an increase in anionic phospholipid on the surface of the platelet with concomitant release of microvesicle from the surface. This is an essential physiological reaction and people whose platelets have reduced ability to generate procoagulant activity (Scott syndrome) show an increased tendency for bleeding.
Washed platelets were treated with either 1.15nM thrombin, 23µg/ml collagen or a mixture of both at the same concentration at 37°C. TRI 50b was added either for 1 minute prior to the addition of activator or immediately after the incubation with activator. Platelet procoagulant activity was determined as described previously (Goodwin C A et al, Biochem J. 1995 8, 308: 15-21).

[4] = Stability: HPLC-PDA assay before and after drying; assay type: physicochemical; conditions: for Amount: 5 mg in 5 mL
Description: An assay of TRI 50c and its sodium and lysine salts before and after drying.
For sample analysis, 5 mg of dried and non-dried material was weighed in a 5 mL volumetric flask and dissolved in 1 mL acetonitrile and filled up with demineralised water to 5 mL.
The quantitative evaluation was performed using an HPLC-PDA method.

thrombin time and APTT = assay type: in vivo, beagle dogs; conditions: dog
Description: Plasma was prepared by centrifugation and frozen at minus 20°C pending analysis.

[5] = rat, in vivo, iv, 1 mg/kg
Description: as §1, §2, §3, §4, §5, §6

[6] = Maximum aqueous solubility (shaken in water at 37°C, filtered, UV spectrum); assay type: physicochemical; conditions: read-out: Solubility when dissolved at 50mg/ml
thrombin = target: T1, thrombin (Homo sapiens, UniProt P00734); assay: Thrombin amidolytic assay (S2238, Vmax); assay type: biochemical; conditions: TRI 50b as external control; Fig. 1
T1 construct: purchased HTI, via Cambridge Bioscience
Description: Chromogenic substrate S2238 dissolved to 4mM (25mg + 10ml) in water. Diluted to 50uM with assay buffer for use in assay at 5µM. (S2238 is H-D-Phe-Pip-Arg-pNA).
Thrombin obtained from HTI, via Cambridge Bioscience, and aliquoted at 1mg/ml with assay buffer. Dilute to 100ng/ml with assay buffer and then a further 1 in 3 for use in the assay.
• 110µl assay buffer • 50ul 5µg/ml thrombin • 20µl vehicle or compound solution • 5 min at 37°C • 20µl 50µM S2238

[7] = dry (desiccator over phosphorus pentoxide for 1 week)
[8] = dry (desiccator over phosphorus pentoxide for 1 week), listed as TRI 50c Na salt, monosodium salt
[9] = non-dried, listed as TRI 50c Na salt, monosodium salt

hydrolysis to the acid form (TRI 50c) [1]: short half life | bleeding (platelet rich thrombus; 3mg/kg to 10mg/kg iv): without bleeding | Area under curve ([2]; 1.0mg/kg iv, n=3): 1.68 | Max Plasma Concentration (observed) ([2]; 1.0mg/kg iv, n=3): 2.24 | Vd ([2]; plasma, iv, 1 mg/kg): 0.5 L/kg | IC50 ([3]; agonist Collagen (23µg/ml), TRI 50b added 1 minute prior to activator, read-out: I C50 plus pre-incubation): 200 nM | IC50 ([3]; agonist Collagen (23µg/ml), TRI 50b added after incubation with activator, read-out: I C50 without incubation): 300 nM | IC50 ([3]; agonist Thrombin/Collagen, TRI 50b added 1 minute prior to activator, read-out: I C50 plus pre-incubation): 3 nM | IC50 ([3]; agonist Thrombin/Collagen, TRI 50b added after incubation with activator, read-out: I C50 without incubation): 80 nM
SMILES: COCCC[C@H](NC(=O)[C@@H]1CCCN1C(=O)[C@@H](Cc1ccccc1)NC(=O)OCc1ccccc1)B1OC(C)(C)C(C)(C)O1 [TRI 50b, Cbz-(R)-Phe-Pro-BoroMpg-OPinacol]
THROMBUS WEIGHT AFTER 20 minute run (platelet rich thrombus; 3.0mg/kg iv): 15.3 ±2.2 mg(n=5) | THROMBUS WEIGHT AFTER 20 minute run (platelet rich thrombus; 10mg/kg iv): 9.78 ±1.9 mg(n=5) | effect on ADP, collagen or epinephrine induced aggregation (washed platelets): does not have an effect

SMILES: COCCC[C@H](NC(=O)[C@@H]1CCCN1C(=O)[C@@H](Cc1ccccc1)NC(=O)OCc1ccccc1)B(O)O [TRI 50c Lys salt]
Purity (% area) [4, 7]: 90.17 % area | Amount [4, 7]: 813.3 µg/mL | Purity (% area) ([4]; non-dried): 92.25 % area | Amount ([4]; non-dried): 809.8 µg/mL

SMILES: COCCC[C@H](NC(=O)[C@@H]1CCCN1C(=O)[C@@H](Cc1ccccc1)NC(=O)OCc1ccccc1)B(O)O [TRI 50c sodium salt, Cbz-(R)-Phe-(S)-Pro-(R)-Mpg-B(OH)2 monosodium salt]
Amount [4, 8]: 1024 µg/mL | Purity (% area) [4, 8]: 98.81 % area | Amount [4, 9]: 1005.8 µg/mL | Purity (% area) [4, 9]: 98.61 % area | thrombin time (thrombin time and APTT; 1.0 mg/kg i.v., 2 minutes post dose, base line 14.3 seconds, listed as sodium salt, monosodium salt, 1 mg/kg): 154.4 s | thrombin time (thrombin time and APTT; 1.0 mg/kg i.v., 2 minutes post dose, base line 14.3 seconds, monosodium salt, 1 mg/kg): 154 s | thrombin time (thrombin time and APTT; 1.0 mg/kg i.v., one hour post dose): 26 s | elevation in the APTT (thrombin time and APTT; 1.0 mg/kg i.v., post dose): 1.3 times | APTT (thrombin time and APTT; 1.0 mg/kg i.v., post dose, base line 19 seconds): 25 s | Thrombin clotting time elevation above base line (thrombin time and APTT; 1.0 mg/kg i.v., two minutes following dosing): 10.8 times | tolerability / adverse events (thrombin time and APTT; in vivo, iv, 1 mg/kg): tolerated well with no adverse events

SMILES: COCCC[C@H](NC(=O)[C@@H]1CCCN1C(=O)[C@@H](Cc1ccccc1)NC(=O)OCc1ccccc1)B(O)O [TRI 50c, Cbz-(R)-Phe-(S)-Pro-(R)-boroMpg-OH]
Area under curve [5]: 1.48 | Max Plasma Concentration (observed) [5]: 2.35 | Volume Distribution [5]: 0.59 L/kg | Purity (% area) [4, 7]: 82.00 % area | Amount [4, 7]: 1000.0 µg/mL

SMILES: COCCC[C@H](NC(=O)[C@@H]1CCCN1C(=O)[C@@H](Cc1ccccc1)NC(=O)OCc1ccccc1)B(O)O [lithium salt]
solubility [6]: 43 mg/mL

SMILES: COCCC[C@H](NC(=O)[C@@H]1CCCN1C(=O)[C@@H](Cc1ccccc1)NC(=O)OCc1ccccc1)B(O)O [magnesium salt of TRI 50c]
activity in thrombin amidolytic assay (thrombin): the same activity as TRI 50b
